Test system: Sp2/0-Ag14 mouse myeloma cells
Experiment: Effect on number of viable Sp2/0-Ag14 cells in culture (trypan blue dye exclusion count)
Details: for number of cells as compared to the number of untreated cells: substance used alone, statement in words
Protocol: In the experiments the newest methods approved by the scientific literature were used. In case of Sp2/0-Ag14 and K562 lines, the logarithmically growing cells were harvested from the medium and resuspended in a 96-well plate used for cell culture to a final concentration of 4x10^4 Sp2/0-Ag14 cells and 2x10^4 K562 cells, respectively, in 250 µl appropriate medium per well containing the tested materials in the indicated concentrations. In case of HeLa, HEp-2 and Vero cells, the cultured cells were harvested from 75 % confluent tissue culture flasks with 0.2 % trypsin and resuspended in the appropriate medium at a density of 10^5 cells/ml. Aliquots (100 µl) were dispensed into 96-well micro plates and incubated for 24 hours. Then the medium was discarded and replaced with 250 µl fresh medium containing the tested compounds in the indicated concentrations. All kinds of cells were allowed to proliferate for 48 hours. The number of viable Sp2/0-Ag14 and K562 cells was then counted microscopically with the trypan blue dye exclusion method. The survival of HeLa, HEp-2 and Vero cells was measured by assessing the endogenous alkaline phosphatase activity of the cells. Results were evaluated using Student's t-test. Data after the mean values in the Tables and signs in the Figures mean: "standard error of mean" (SEM).
In case of L-tryptophan for example the 2-4th control experiments show the effects of 0.002; 0.006; and 0.01 % by mass, resp., of L-tryptophan alone on the number of cells.
In Table 2 the amounts of materials expressed in % by mass and multiplied by 1000 are shown, thus the numbers in the Table should read by multiplying with 10^-3; for example in Example 21 in case of L-tryptophan the number 6 means 6 x 10^-3, that is 0.006 % by mass. The conditions of the experiments were the same as before.
To help the comparability with the earlier results Sp2/0-Ag14 cells were also used and the experimental conditions were the same as before. On the vertical axis the changes of the amounts of cells expressed in the percentage of the amounts of untreated cells are shown. On the horizontal axis the changes expressed in % of the compositions (changes of the amounts of the active ingredients) are shown. […] Thus, the 80 % composition of Example 99 contains every component in an amount of 80 %.
The composition of the control mixtures was given in connection with Table 1.
As a function of time the effect of the 100 % composition of Example 103 on Sp2/0-Ag14 cells was investigated and compared to the 100 % control mixture and to untreated cells. The experimental conditions were the same as in the previous experiments except that in this case the cells were counted not only after 48 hr but also after 6; 12; 24; and 36 hr. On the vertical axis the cell number/ml is shown. On the horizontal axis the time is shown in hours.

[1] = Table 1, number of cells after 48 hr incubation, mean ± SEM, untreated cells 59.1 ±3.2
[2] = Table 2 (first part), 48 hr, untreated cells = 100 %, mean ± SEM
[3] = Table 2 (first part), number of cells after 48 hr, mean ± SEM, untreated cells 74.3 ± 3.9
[4] = Table 2 (second part), number of cells after 48 hr, mean ± SEM, untreated cells 74.3 ± 3.9

SMILES	CHANGE OF THE NUMBER OF CELLS (x 10^4) [1]	IN% OF THE UNTREATED CELLS (mouse, sp2/0-ag14 cells, 48 h) [%]	IN % OF THE UN-TREATED CELLS (mouse, sp2/0-ag14 cells, 48 h) [%]	other results
N[C@@H](Cc1c[nH]c2ccccc12)C(=O)O [Control 2, L-tryptophan]	61.7±3.0 x 10^4	104.4±5.0	–	–
N[C@@H](Cc1c[nH]c2ccccc12)C(=O)O [Control 3, L-tryptophan]	62.6±2.0 x 10^4	106.0±3.4	–	–
N[C@@H](Cc1c[nH]c2ccccc12)C(=O)O [Control 4, L-tryptophan]	63.0±3.4 x 10^4	106.6±5.8	–	–
O=CC[C@H](O)[C@H](O)CO [Control 6, 2-deoxy-D-ribose]	59.3±2.3 x 10^4	–	–	–
O=CC[C@H](O)[C@H](O)CO [Control 7, 2-deoxy-D-ribose]	59.8±1.2 x 10^4	101.1±2.2	–	–
O=CC[C@H](O)[C@H](O)CO [Control 8, 2-deoxy-D-ribose]	59.0 ±3.2 x 10^4	99.9 ±5.9	–	–
Nc1ncnc2nc[nH]c12 [Control 10, adenine]	60.5±1.4 x 10^4	102.4±2.5	–	–
Nc1ncnc2nc[nH]c12 [Control 11, adenine]	58.2 ±1.8 x 10^4	98.5 ±3.2	–	–
Nc1ncnc2nc[nH]c12 [Control 12, adenine]	58.6 ± 1.5 x 10^4	99.1 ± 2.8	–	–
O=C(O)CC(O)C(=O)O (stereo not shown) [Control 14, malic acid]	58.7 ± 2.1 x 10^4	99.3±3.7	–	–
O=C(O)CC(O)C(=O)O (stereo not shown) [Control 15, malic acid]	60.4 ± 1.7 x 10^4	102.2 ± 3.0	–	–
O=C(O)CC(O)C(=O)O (stereo not shown) [Control 16, malic acid]	58.8±2.5 x 10^4	99.5±4.5	–	–
O=C1O[C@H]([C@@H](O)CO)C(O)=C1O [Control 18, L-ascorbic acid]	58.2±1.4 x 10^4	98.5 ±2.5	–	–
O=C1O[C@H]([C@@H](O)CO)C(O)=C1O [Control 19, L-ascorbic acid]	56.7±2.1 x 10^4	96.0±3.7	–	–
O=C1O[C@H]([C@@H](O)CO)C(O)=C1O [Control 20, L-ascorbic acid]	56.3 ±2.6 x 10^4	95.2 ±4.8	–	–
N[C@@H](Cc1ccccc1)C(=O)O [Control 22, L-phenylalanine]	–	–	–	IN % OF THE UN-TREATED CELLS [2]: 109.4 ± 4.0%; CHANGE OF THE NUMBER OF CELLS (x 10^4) [3]: 81.3 ± 3.0 x 10^4; number of cells as compared to the number of untreated cells (48 hr): slightly increased
N=C(N)NCCC[C@H](N)C(=O)O [Control 23, L-arginine]	–	–	–	IN % OF THE UN-TREATED CELLS [2]: 103.4 ± 1.8%; CHANGE OF THE NUMBER OF CELLS (x 10^4) [3]: 76.8 ± 1.3 x 10^4; number of cells as compared to the number of untreated cells (48 hr): slightly increased
N[C@@H](Cc1c[nH]cn1)C(=O)O [Control 24, L-histidine]	–	–	108.7 ± 2.7	CHANGE OF THE NUMBER OF CELLS (x 10^4) [3]: 80.7 ± 2.0 x 10^4; number of cells as compared to the number of untreated cells (48 hr): slightly increased
O=C(O)CCCC[C@@H]1SC[C@@H]2NC(=O)N[C@@H]21 [Control 25, d-biotin]	–	–	99.9 ± 3.1	CHANGE OF THE NUMBER OF CELLS (x 10^4) [3]: 74.2 ± 2.3 x 10^4
Cc1ncc(CO)c(CO)c1O [Control 26, pyridoxine]	–	–	91.0 ± 2.1	CHANGE OF THE NUMBER OF CELLS (x 10^4) [3]: 67.6 ± 1.6 x 10^4
CSCC[C@H](N)C(=O)O [Control 27, L-methionine]	–	–	98.7 ± 3.6	CHANGE OF THE NUMBER OF CELLS (x 10^4) [3]: 73.3 ± 2.7 x 10^4
N[C@@H](Cc1ccc(O)cc1)C(=O)O [Control 28, L-tyrosine]	–	–	–	IN % OF THE UN-TREATED CELLS [2]: 94.9 ± 1.5%; CHANGE OF THE NUMBER OF CELLS (x 10^4) [3]: 70.5 ± 1.1 x 10^4
Cc1cc2nc3c(=O)[nH]c(=O)nc-3n(C[C@H](O)[C@H](O)[C@H](O)CO)c2cc1C [Control 29, riboflavin]	–	–	103.5 ± 2.2	CHANGE OF THE NUMBER OF CELLS (x 10^4) [3]: 76.9 ± 1.7 x 10^4; number of cells as compared to the number of untreated cells (48 hr): slightly increased
O=C[C@@H](O)[C@@H](O)[C@H](O)[C@H](O)CO [Control 30, D-mannose]	–	–	98.4 ± 1.5	CHANGE OF THE NUMBER OF CELLS (x 10^4) [4]: 73.1 ± 1.1 x 10^4
O=C(O)CNC(=O)c1ccccc1 [Control 31, N-benzoylglycine]	–	–	99.8 ± 2.1	CHANGE OF THE NUMBER OF CELLS (x 10^4) [4]: 74.2 ± 1.6 x 10^4
Cc1cc2nc3c(=O)[nH]c(=O)nc-3n(C[C@H](O)[C@H](O)[C@H](O)COP(=O)(O)O)c2cc1C [Control 32, riboflavin-5'-phosphate]	–	–	98.9 ± 1.8	CHANGE OF THE NUMBER OF CELLS (x 10^4) [4]: 73.5 ± 1.3 x 10^4
O=C(O)c1cc(=O)[nH]c(=O)[nH]1 [Control 33, orotic acid]	–	–	94.2 ± 1.7	CHANGE OF THE NUMBER OF CELLS (x 10^4) [4]: 70.0 ± 1.3 x 10^4
N[C@@H](Cc1c[nH]c2ccccc12)C(=O)O [L-tryptophan]	–	–	–	number of cells as compared to the number of untreated cells (48 hr): increased slightly
